Experimental data reported in the NIST ThermoML archive (doi:10.1021/je200922s).
Numbers after ± are expanded uncertainties.

Assay: xn = mol fraction of the nth substance listed
Settings: 101 kPa, Liquid; for viscosity: Capillary tube (Ostwald / Ubbelohde) method; for mass density: Vibrating tube method

CCn1cc[n+](C)c1.O=S(=O)([N-]S(=O)(=O)C(F)(F)F)C(F)(F)F + CCO
Settings | mass density [kg/m3] | viscosity [mPa·s]
293.15 K, x1 = 0.1008 | 1038.4 ± 0.3 | 1.612 ± 0.065
293.15 K, x1 = 0.1971 | 1179.41 ± 0.3 | 2.78 ± 0.12
293.15 K, x1 = 0.3 | 1276.68 ± 0.26 | 4.6 ± 0.19
293.15 K, x1 = 0.3992 | 1341.77 ± 0.28 | 7.429 ± 0.3
293.15 K, x1 = 0.5014 | 1391.85 ± 0.33 | 10.65 ± 0.43
293.15 K, x1 = 0.5955 | 1427.56 ± 0.39 | 13.87 ± 0.57
293.15 K, x1 = 0.6966 | 1458.64 ± 0.46 | 17.76 ± 0.72
293.15 K, x1 = 0.7982 | 1484.18 ± 0.53 | 21.8 ± 0.9
293.15 K, x1 = 0.9041 | 1506.32 ± 0.61 | 28.74 ± 1.2
298.15 K, x1 = 0.1008 | 1034.14 ± 0.3 | 1.478 ± 0.06
298.15 K, x1 = 0.1971 | 1175.21 ± 0.28 | 2.35 ± 0.096
298.15 K, x1 = 0.3 | 1272.19 ± 0.26 | 4.15 ± 0.17
298.15 K, x1 = 0.3992 | 1337.18 ± 0.28 | 6.479 ± 0.26
298.15 K, x1 = 0.5014 | 1387.12 ± 0.33 | 9.232 ± 0.38
298.15 K, x1 = 0.5955 | 1422.72 ± 0.39 | 12.05 ± 0.49
298.15 K, x1 = 0.6966 | 1453.69 ± 0.45 | 15.18 ± 0.62
298.15 K, x1 = 0.7982 | 1479.17 ± 0.53 | 18.7 ± 0.76
298.15 K, x1 = 0.9041 | 1501.31 ± 0.61 | 24.52 ± 1
303.15 K, x1 = 0.1008 | 1029.79 ± 0.3 | 1.25 ± 0.051
303.15 K, x1 = 0.1971 | 1170.59 ± 0.28 | 2.16 ± 0.088
303.15 K, x1 = 0.3 | 1267.5 ± 0.26 | 3.728 ± 0.15
303.15 K, x1 = 0.3992 | 1332.39 ± 0.28 | 5.697 ± 0.23
303.15 K, x1 = 0.5014 | 1382.49 ± 0.33 | 8.1 ± 0.33
303.15 K, x1 = 0.5955 | 1417.99 ± 0.38 | 10.31 ± 0.42
303.15 K, x1 = 0.6966 | 1448.78 ± 0.45 | 13.13 ± 0.54
303.15 K, x1 = 0.7982 | 1474.28 ± 0.52 | 16.12 ± 0.66
303.15 K, x1 = 0.9041 | 1496.34 ± 0.6 | 20.9 ± 0.86
308.15 K, x1 = 0.1008 | 1025.12 ± 0.3 | 1.12 ± 0.045
308.15 K, x1 = 0.1971 | 1166.55 ± 0.27 | 1.9 ± 0.077
308.15 K, x1 = 0.3 | 1263.4 ± 0.26 | 3.157 ± 0.13
308.15 K, x1 = 0.3992 | 1327.88 ± 0.28 | 5.055 ± 0.21
308.15 K, x1 = 0.5014 | 1377.68 ± 0.33 | 7.177 ± 0.29
308.15 K, x1 = 0.5955 | 1413.41 ± 0.38 | 9.109 ± 0.37
308.15 K, x1 = 0.6966 | 1443.98 ± 0.45 | 11.47 ± 0.47
308.15 K, x1 = 0.7982 | 1469.4 ± 0.52 | 14.04 ± 0.57
308.15 K, x1 = 0.9041 | 1491.39 ± 0.6 | 18.05 ± 0.74
313.15 K, x1 = 0.1008 | 1021.47 ± 0.3 | 1.101 ± 0.045
313.15 K, x1 = 0.1971 | 1162.51 ± 0.27 | 1.645 ± 0.067
313.15 K, x1 = 0.3 | 1259.31 ± 0.25 | 2.64 ± 0.11
313.15 K, x1 = 0.3992 | 1323.62 ± 0.28 | 4.404 ± 0.18
313.15 K, x1 = 0.5014 | 1372.99 ± 0.33 | 6.199 ± 0.25
313.15 K, x1 = 0.5955 | 1408.57 ± 0.38 | 7.954 ± 0.32
313.15 K, x1 = 0.6966 | 1439.3 ± 0.44 | 10.01 ± 0.41
313.15 K, x1 = 0.7982 | 1464.39 ± 0.51 | 12.34 ± 0.5
313.15 K, x1 = 0.9041 | 1486.41 ± 0.6 | 15.74 ± 0.64
318.15 K, x1 = 0.1008 | 1019.1 ± 0.3 | 1.001 ± 0.041
318.15 K, x1 = 0.1971 | 1159.51 ± 0.27 | 1.412 ± 0.057
318.15 K, x1 = 0.3 | 1255.23 ± 0.25 | 2.459 ± 0.1
318.15 K, x1 = 0.3992 | 1319.8 ± 0.28 | 3.945 ± 0.16
318.15 K, x1 = 0.5014 | 1368.71 ± 0.32 | 5.603 ± 0.23
318.15 K, x1 = 0.5955 | 1404 ± 0.38 | 7.141 ± 0.29
318.15 K, x1 = 0.6966 | 1434.53 ± 0.44 | 8.965 ± 0.36
318.15 K, x1 = 0.7982 | 1459.6 ± 0.51 | 10.93 ± 0.44
318.15 K, x1 = 0.9041 | 1481.54 ± 0.59 | 13.84 ± 0.56
323.15 K, x1 = 0.1008 | 1015.54 ± 0.3 | 0.987 ± 0.04
323.15 K, x1 = 0.1971 | 1156.54 ± 0.33 | 1.307 ± 0.053
323.15 K, x1 = 0.3 | 1252.11 ± 0.27 | 2.317 ± 0.094
323.15 K, x1 = 0.3992 | 1316.24 ± 0.28 | 3.656 ± 0.15
323.15 K, x1 = 0.5014 | 1364.61 ± 0.33 | 5.195 ± 0.21
323.15 K, x1 = 0.5955 | 1399.5 ± 0.38 | 6.5 ± 0.26
323.15 K, x1 = 0.6966 | 1429.97 ± 0.44 | 8.116 ± 0.33
323.15 K, x1 = 0.7982 | 1454.97 ± 0.51 | 9.799 ± 0.4
323.15 K, x1 = 0.9041 | 1476.73 ± 0.59 | 12.28 ± 0.5
